Test results: the NIST ThermoML archive (doi:10.1021/je800356x)

Assay: molar heat capacity at constant pressure
Conditions: 101.33 kPa, Liquid, Small sample (50 mg) DSC

OCCCCO [1,4-butanediol]
Conditions | molar heat capacity at constant pressure [J/K/mol]
293.15 K | 200.51
294.65 K | 201.33
296.15 K | 202.16
297.65 K | 202.99
298.15 K | 203.27
299.15 K | 203.82
300.65 K | 204.67
302.15 K | 205.51
303.65 K | 206.36
305.15 K | 207.22
306.65 K | 208.08
308.15 K | 208.95
309.65 K | 209.82
311.15 K | 210.7
312.65 K | 211.58
314.15 K | 212.47
315.65 K | 213.36
317.15 K | 214.26
318.65 K | 215.17
320.15 K | 216.08
321.65 K | 216.99
323.15 K | 217.91
324.65 K | 218.83
326.15 K | 219.76
327.65 K | 220.7
329.15 K | 221.64
330.65 K | 222.58
332.15 K | 223.53
333.65 K | 224.49
335.15 K | 225.45
336.65 K | 226.41
338.15 K | 227.38
339.65 K | 228.36
341.15 K | 229.34
342.65 K | 230.33
344.15 K | 231.32
345.65 K | 232.32
347.15 K | 233.32
348.65 K | 234.32
350.15 K | 235.34
351.65 K | 236.35
353.15 K | 237.38

OCCCCCCCCCO [1,9-nonanediol]
Conditions | molar heat capacity at constant pressure [J/K/mol]
318.65 K | 389.02
320.15 K | 391.15
321.65 K | 393.27
323.15 K | 395.39
324.65 K | 397.51
326.15 K | 399.62
327.65 K | 401.73
329.15 K | 403.84
330.65 K | 405.94
332.15 K | 408.03
333.65 K | 410.12
335.15 K | 412.21
336.65 K | 414.3
338.15 K | 416.38
339.65 K | 418.45
341.15 K | 420.52
342.65 K | 422.59
344.15 K | 424.66
345.65 K | 426.72
347.15 K | 428.77
348.65 K | 430.82
350.15 K | 432.87
351.65 K | 434.92
353.15 K | 436.95

OCCCCCO [1,5-pentanediol]
Conditions | molar heat capacity at constant pressure [J/K/mol]
293.15 K | 229.04
294.65 K | 230.06
296.15 K | 231.1
297.65 K | 232.14
298.15 K | 232.49
299.15 K | 233.19
300.65 K | 234.25
302.15 K | 235.31
303.65 K | 236.39
305.15 K | 237.47
306.65 K | 238.56
308.15 K | 239.66
309.65 K | 240.77
311.15 K | 241.89
312.65 K | 243.01
314.15 K | 244.14
315.65 K | 245.28
317.15 K | 246.43
318.65 K | 247.59
320.15 K | 248.76
321.65 K | 249.93
323.15 K | 251.11
324.65 K | 252.3
326.15 K | 253.5
327.65 K | 254.7
329.15 K | 255.92
330.65 K | 257.14
332.15 K | 258.37
333.65 K | 259.61
335.15 K | 260.86
336.65 K | 262.11
338.15 K | 263.38
339.65 K | 264.65
341.15 K | 265.93
342.65 K | 267.22
344.15 K | 268.51
345.65 K | 269.82
347.15 K | 271.13
348.65 K | 272.45
350.15 K | 273.78
351.65 K | 275.12
353.15 K | 276.46

OCCO [1,2-ethanediol]
Conditions | molar heat capacity at constant pressure [J/K/mol]
293.15 K | 148.1
294.65 K | 148.57
296.15 K | 149.05
297.65 K | 149.53
298.15 K | 149.69
299.15 K | 150.01
300.65 K | 150.48
302.15 K | 150.96
303.65 K | 151.44
305.15 K | 151.92
306.65 K | 152.4
308.15 K | 152.88
309.65 K | 153.36
311.15 K | 153.83
312.65 K | 154.31
314.15 K | 154.79
315.65 K | 155.27
317.15 K | 155.75
318.65 K | 156.23
320.15 K | 156.71
321.65 K | 157.19
323.15 K | 157.67
324.65 K | 158.15
326.15 K | 158.63
327.65 K | 159.11
329.15 K | 159.6
330.65 K | 160.08
332.15 K | 160.56
333.65 K | 161.04
335.15 K | 161.52
336.65 K | 162
338.15 K | 162.49
339.65 K | 162.97
341.15 K | 163.45
342.65 K | 163.93
344.15 K | 164.42
345.65 K | 164.9
347.15 K | 165.38
348.65 K | 165.86
350.15 K | 166.35
351.65 K | 166.83
353.15 K | 167.32

OCCCCCCCO [1,7-heptanediol]
Conditions | molar heat capacity at constant pressure [J/K/mol]
293.15 K | 292.06
294.65 K | 293.4
296.15 K | 294.75
297.65 K | 296.11
299.15 K | 297.48
300.65 K | 298.87
302.15 K | 300.26
303.65 K | 301.67
305.15 K | 303.09
306.65 K | 304.51
308.15 K | 305.95
309.65 K | 307.41
311.15 K | 308.87
312.65 K | 310.34
314.15 K | 311.83
315.65 K | 313.33
317.15 K | 314.83
318.65 K | 316.35
320.15 K | 317.88
321.65 K | 319.43
323.15 K | 320.98
324.65 K | 322.54
326.15 K | 324.12
327.65 K | 325.71
329.15 K | 327.31
330.65 K | 328
332.15 K | 330.54
333.65 K | 332.17
335.15 K | 333.81
336.65 K | 335.47
338.15 K | 337.13
339.65 K | 338.81
341.15 K | 340.5
342.65 K | 342.2
344.15 K | 343.91
345.65 K | 345.63
347.15 K | 347.37
348.65 K | 349.11
350.15 K | 350.87
351.65 K | 352.64
353.15 K | 354.42

OCCCO [propan-1,3-diol]
Conditions | molar heat capacity at constant pressure [J/K/mol]
293.15 K | 173.4
294.65 K | 174.11
296.15 K | 174.83
297.65 K | 175.54
298.15 K | 175.78
299.15 K | 176.26
300.65 K | 176.98
302.15 K | 177.7
303.65 K | 178.42
305.15 K | 179.15
306.65 K | 179.87
308.15 K | 180.59
309.65 K | 181.32
311.15 K | 182.05
312.65 K | 182.78
314.15 K | 183.51
315.65 K | 184.24
317.15 K | 184.97
318.65 K | 185.7
320.15 K | 186.44
321.65 K | 187.17
323.15 K | 187.91
324.65 K | 188.65
326.15 K | 189.38
327.65 K | 190.12
329.15 K | 190.87
330.65 K | 191.61
332.15 K | 192.35
333.65 K | 193.1
335.15 K | 193.84
336.65 K | 194.59
338.15 K | 195.34
339.65 K | 196.09
341.15 K | 196.84
342.65 K | 197.59
344.15 K | 198.34
345.65 K | 199.1
347.15 K | 199.85
348.65 K | 200.61
350.15 K | 201.37
351.65 K | 202.13
353.15 K | 202.89

OCCCCCCCCO [1,8-octanediol]
Conditions | molar heat capacity at constant pressure [J/K/mol]
333.65 K | 371.35
335.15 K | 373.24
336.65 K | 375.13
338.15 K | 377.03
339.65 K | 378.93
341.15 K | 380.83
342.65 K | 382.74
344.15 K | 384.65
345.65 K | 386.56
347.15 K | 388.48
348.65 K | 390.4
350.15 K | 392.32
351.65 K | 394.24
353.15 K | 396.17

OCCCCCCO [1,6-hexanediol]
Conditions | molar heat capacity at constant pressure [J/K/mol]
318.65 K | 282.66
320.15 K | 284.25
321.65 K | 285.84
323.15 K | 287.42
324.65 K | 288.99
326.15 K | 290.55
327.65 K | 292.12
329.15 K | 293.67
330.65 K | 295.22
332.15 K | 296.76
333.65 K | 298.3
335.15 K | 299.83
336.65 K | 301.36
338.15 K | 302.88
339.65 K | 304.4
341.15 K | 305.91
342.65 K | 307.41
344.15 K | 308.91
345.65 K | 310.4
347.15 K | 311.88
348.65 K | 313.36
350.15 K | 314.84
351.65 K | 316.31
353.15 K | 317.77
